Experimental data reported in US20240174648A1, “Small Molecule Compound” (Technoderma Medicines Pte Ltd, priority 2019, published 2024).

Tests used:
Type in all cases: biochemical
[1] = target: Tyk2 (Homo sapiens, UniProt P29597); experiment: JAK kinase inhibition assay (EZ Reader, peptide substrate phosphorylation) - Tyk2; conditions: Tyk2 kinase 1 nM; 8 concentration points, max 10 μM
How it was run: (§1)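 Microfluidic mobility-shift detection of fluorescent peptide substrate phosphorylation, with JAK1 at 20 nM and JAK2, JAK3 and Tyk2 each at 1 nM final, in 20 mM HEPES pH 7.4, 10 mM MgCl2, 1 mM DTT. Reactions run at room temperature to 20–30% conversion, then EDTA-stopped. Compounds tested at 8 three-fold dilutions from 10 μM top final; IC50 from conversion curves.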

[2] = target: JAK1 (Homo sapiens, UniProt P23458); experiment: JAK kinase inhibition assay (EZ Reader, peptide substrate phosphorylation) - JAK1; conditions: JAK1 kinase 20 nM; 8 concentration points, max 10 μM
How it was run: as §1

[3] = target: JAK2 (Homo sapiens, UniProt O60674); experiment: JAK kinase inhibition assay (EZ Reader, peptide substrate phosphorylation) - JAK2; conditions: JAK2 kinase 1 nM; 8 concentration points, max 10 μM
Excerpt: (§2) Assay for Identifying Inhibitory Effects of Compounds on JAK Kinases
(§3) Janus kinases (JAK), including JAK1, JAK2, JAK3 and Tyk2, transduce a cytokine-mediated signal through a JAK-STAT pathway. The kinases are 120-140 kDa in size and have 7 determined homology regions: JH1 to JH7. JH1 is an important region for enzymatic activity and has typical characteristics of tyrosine kinases. Phosphorylation of tyrosine leads to a change in the conformation of JAK protein, thereby promoting binding of substrate. The JAK-STAT system includes three main parts: receptors penetrating a cell membrane, Janus kinases binding to the receptors, and signal transducers and activators of transcription (STAT) for transmitting signals to a nucleus and DNA. When cytokines bind to receptors, JAK phosphorylates the receptors and attracts STAT proteins. The STAT proteins are also phosphorylated and combined with one another to form dimers. The dimers enter the nucleus and bind to DNA, thereby leading to gene transcription.
(§4) EZ Reader from PerkinElmer can be used to detect the phosphorylation of polypeptide substrates catalyzed by kinases. The device is based on microfluidic techniques, and can directly detect fluorescently labeled substrates and products. The separation step is achieved by controlling the pressure and electric field strength in the microfluidic chip. In kinase assays, a product conversion ratio is usually controlled to be 20-30%. A biological test is used to identify inhibitory effects of compounds on JAKs.
(§5) Compound powder was dissolved in DMSO, sealed and stored in a freezer under −20° C. The in-house compound Ref1 was used as a positive control for JAK1, JAK2 and Tyk2 tests, and Ref2 was used as a positive control for JAK3 tests.
(§6) S2.8. Assay buffer: 20 mM HEPES buffer, pH 7.4, 10 mM magnesium chloride, 0.01% bovine serum albumin BSA, 0.0005% Tween-20 and 1 mM dithiothreitol solution.
(§7) S2.9. Stop buffer: 180 mM HEPES buffer, 20 mM ethylenediaminetetraacetic acid and 0.2% coating reagent 3.
(§8) S2.10. Separation buffer: 100 mM HEPES buffer, 10 mM ethylenediaminetetraacetic acid, 0.0005% Tween 20, 0.1% coating reagent 3 and 1% dimethyl sulfoxide.
The compound was dissolved in dimethyl sulfoxide and diluted to 10 mM concentration, a certain volume of solution was taken and diluted to 0.6 mM concentration, 10 μL of the 0.6 mM dilution was added to a 384-well microplate, and then was diluted 3-fold with a total of 8 concentration points.
Positive control (HPE1): Ref1, final concentration: 10 μM […]
(§9) Negative control (ZPE): DMSO, final content: 1.6%
(§10) Compounds: maximum final concentration: 10 μM; 3-fold dilution, 8 concentration points and 2 duplicates.
(§11) S4.1. 250 nL of the compound was added to each well of the assay microplate by using ECHO, and centrifuged at 1000 rpm for 1 minute.
(§12) S4.2. 5 μL of the assay buffer was added and agitated for a few seconds to fully dissolve the compound.
(§13) S4.3. 5 μL of 3× substrate solution and 5 μL of 3× kinase solution were added and centrifuged at 800 rpm for 1 minute.
(§14) S4.4. Final concentrations of JAK1, JAK2, JAK3 and Tyk2 kinases in the reaction system were 20 nM, 1 nM, 1 nM and 1 nM respectively.
(§15) S4.5. Incubation at room temperature, where kinases had time differences, and different batches of kinases had time differences.
(§16) S4.6. When 20%-30% of the reaction completed, 15 μL of stop buffer was added to stop the reaction, and centrifuged at 1000 rpm for 2 minutes.
(§17) S4.7. The microplates were placed on EZ Reader for reading.
(§18) S4.8. Readings on EZ Reader were calculated by using a peak height, where product conversion ratio (%)=product/(product+substrate)*100.
(§19) 5. Data Processing: IC50 calculation
(§20) A graphing software Xlfit was used to form a concentration curve of the test compound, and an IC50 value was calculated.
(§21) “A” means “≥10 μM”; “B” means “≥1 μM and <10 μM”; “C” means “≥0.1 μM and <1 μM”; and “D” means “<0.1 μM”.

[4] = target: T1, JAK3 (Homo sapiens, UniProt P52333); experiment: JAK kinase inhibition assay (EZ Reader, peptide substrate phosphorylation) - JAK3; conditions: JAK3 kinase 1 nM; 8 concentration points, max 10 μM
T1 sequence (P52333 1-1124): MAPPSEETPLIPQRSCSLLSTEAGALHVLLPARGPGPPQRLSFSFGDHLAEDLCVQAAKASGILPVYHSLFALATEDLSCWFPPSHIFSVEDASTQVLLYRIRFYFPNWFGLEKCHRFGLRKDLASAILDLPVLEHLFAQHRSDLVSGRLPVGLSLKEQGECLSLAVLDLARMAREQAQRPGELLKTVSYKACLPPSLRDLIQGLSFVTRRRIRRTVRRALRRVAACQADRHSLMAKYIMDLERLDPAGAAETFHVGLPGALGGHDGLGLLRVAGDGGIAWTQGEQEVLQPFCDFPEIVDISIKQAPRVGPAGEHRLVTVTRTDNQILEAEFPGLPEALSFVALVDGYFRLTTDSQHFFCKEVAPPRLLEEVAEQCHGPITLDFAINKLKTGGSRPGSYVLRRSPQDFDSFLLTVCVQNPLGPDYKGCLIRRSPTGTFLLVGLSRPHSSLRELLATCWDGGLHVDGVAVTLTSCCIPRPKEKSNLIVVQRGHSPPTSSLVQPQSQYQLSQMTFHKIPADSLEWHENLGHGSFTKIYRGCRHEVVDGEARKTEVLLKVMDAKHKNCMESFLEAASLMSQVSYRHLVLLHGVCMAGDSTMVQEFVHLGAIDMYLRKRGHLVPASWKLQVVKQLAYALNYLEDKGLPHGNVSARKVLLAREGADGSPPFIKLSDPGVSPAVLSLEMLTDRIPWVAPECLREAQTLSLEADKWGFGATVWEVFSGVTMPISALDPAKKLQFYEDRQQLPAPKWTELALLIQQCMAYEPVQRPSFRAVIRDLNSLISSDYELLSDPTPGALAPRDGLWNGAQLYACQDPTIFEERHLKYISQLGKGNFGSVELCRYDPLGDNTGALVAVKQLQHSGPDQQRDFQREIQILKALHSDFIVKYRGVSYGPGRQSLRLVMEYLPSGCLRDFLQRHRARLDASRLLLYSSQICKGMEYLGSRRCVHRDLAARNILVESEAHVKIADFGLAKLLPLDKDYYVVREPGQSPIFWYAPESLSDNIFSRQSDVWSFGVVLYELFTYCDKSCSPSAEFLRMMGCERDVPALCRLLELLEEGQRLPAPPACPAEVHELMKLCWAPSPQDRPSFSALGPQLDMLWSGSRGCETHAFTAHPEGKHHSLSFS
Excerpt: as §2, §3, §4, §5, §6, §7, §8
The compound was dissolved in dimethyl sulfoxide and diluted to 10 mM concentration, a certain volume of solution was taken and diluted to 0.6 mM concentration, 10 μL of the 0.6 mM dilution was added to a 384-well microplate, and then was diluted 3-fold with a total of 8 concentration points. […]
Positive control (HPE1): Ref2, final concentration: 10 μM
as §9, §10, §11, §12, §13, §14, §15, §16, §17, §18, §19, §20, §21

Chain of JAK2 (O60674 whole entry): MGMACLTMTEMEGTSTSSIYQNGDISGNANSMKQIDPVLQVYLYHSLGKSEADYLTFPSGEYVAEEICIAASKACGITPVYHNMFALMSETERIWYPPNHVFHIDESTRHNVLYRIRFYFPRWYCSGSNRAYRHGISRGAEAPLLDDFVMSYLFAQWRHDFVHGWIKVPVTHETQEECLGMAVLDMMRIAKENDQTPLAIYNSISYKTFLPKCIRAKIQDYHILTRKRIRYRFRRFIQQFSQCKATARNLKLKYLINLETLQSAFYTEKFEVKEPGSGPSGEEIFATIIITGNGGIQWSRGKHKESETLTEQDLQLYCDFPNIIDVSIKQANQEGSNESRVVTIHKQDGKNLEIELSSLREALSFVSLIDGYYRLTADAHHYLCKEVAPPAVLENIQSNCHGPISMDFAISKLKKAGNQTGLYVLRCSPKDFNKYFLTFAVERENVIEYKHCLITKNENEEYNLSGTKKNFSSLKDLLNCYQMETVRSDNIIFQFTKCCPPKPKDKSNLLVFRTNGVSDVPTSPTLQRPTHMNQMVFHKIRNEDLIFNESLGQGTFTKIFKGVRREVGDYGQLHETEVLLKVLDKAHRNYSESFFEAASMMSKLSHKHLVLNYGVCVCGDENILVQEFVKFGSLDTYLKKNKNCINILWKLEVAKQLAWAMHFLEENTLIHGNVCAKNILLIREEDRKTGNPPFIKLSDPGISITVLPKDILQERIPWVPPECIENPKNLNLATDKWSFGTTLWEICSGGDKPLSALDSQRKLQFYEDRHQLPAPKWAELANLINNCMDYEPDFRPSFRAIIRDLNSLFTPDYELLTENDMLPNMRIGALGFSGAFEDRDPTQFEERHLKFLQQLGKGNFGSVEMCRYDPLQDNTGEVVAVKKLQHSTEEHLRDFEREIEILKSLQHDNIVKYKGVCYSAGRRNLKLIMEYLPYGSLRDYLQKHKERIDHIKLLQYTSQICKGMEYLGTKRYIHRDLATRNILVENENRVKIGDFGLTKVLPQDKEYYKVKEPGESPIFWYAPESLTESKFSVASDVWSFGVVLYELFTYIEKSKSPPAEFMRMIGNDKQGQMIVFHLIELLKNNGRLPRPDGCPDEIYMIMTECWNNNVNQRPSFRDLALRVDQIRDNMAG
Chain of Tyk2 (P29597 whole entry): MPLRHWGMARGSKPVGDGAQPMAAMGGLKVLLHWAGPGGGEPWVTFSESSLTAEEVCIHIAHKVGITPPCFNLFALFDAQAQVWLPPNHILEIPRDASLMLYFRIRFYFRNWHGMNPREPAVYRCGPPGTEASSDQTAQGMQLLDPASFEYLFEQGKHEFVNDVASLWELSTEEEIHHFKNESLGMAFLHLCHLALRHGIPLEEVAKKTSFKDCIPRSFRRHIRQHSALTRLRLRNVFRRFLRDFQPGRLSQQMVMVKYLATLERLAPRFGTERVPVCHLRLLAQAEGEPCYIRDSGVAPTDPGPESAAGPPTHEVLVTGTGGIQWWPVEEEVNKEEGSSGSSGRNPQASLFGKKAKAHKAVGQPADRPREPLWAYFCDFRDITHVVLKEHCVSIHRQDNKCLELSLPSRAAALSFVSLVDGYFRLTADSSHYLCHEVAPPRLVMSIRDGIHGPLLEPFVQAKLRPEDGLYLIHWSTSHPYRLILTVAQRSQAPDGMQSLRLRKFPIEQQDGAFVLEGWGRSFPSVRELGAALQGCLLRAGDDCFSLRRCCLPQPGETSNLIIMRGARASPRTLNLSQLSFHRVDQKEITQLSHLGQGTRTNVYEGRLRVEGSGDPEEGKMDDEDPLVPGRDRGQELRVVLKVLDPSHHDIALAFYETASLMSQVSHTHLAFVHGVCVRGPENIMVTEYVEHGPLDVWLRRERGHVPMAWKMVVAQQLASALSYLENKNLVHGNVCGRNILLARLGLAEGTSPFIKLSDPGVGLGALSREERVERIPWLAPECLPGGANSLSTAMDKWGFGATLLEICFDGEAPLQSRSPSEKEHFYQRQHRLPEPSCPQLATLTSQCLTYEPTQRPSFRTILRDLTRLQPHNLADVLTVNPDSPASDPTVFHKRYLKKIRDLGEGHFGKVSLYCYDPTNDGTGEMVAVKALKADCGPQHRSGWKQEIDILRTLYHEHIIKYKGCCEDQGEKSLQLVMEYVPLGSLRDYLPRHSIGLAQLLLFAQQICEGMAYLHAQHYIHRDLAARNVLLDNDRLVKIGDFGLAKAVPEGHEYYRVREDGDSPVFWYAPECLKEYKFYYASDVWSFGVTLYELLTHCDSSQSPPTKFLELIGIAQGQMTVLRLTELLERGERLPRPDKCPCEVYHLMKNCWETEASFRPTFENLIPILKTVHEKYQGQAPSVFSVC
Chain of JAK1 (P23458 whole entry): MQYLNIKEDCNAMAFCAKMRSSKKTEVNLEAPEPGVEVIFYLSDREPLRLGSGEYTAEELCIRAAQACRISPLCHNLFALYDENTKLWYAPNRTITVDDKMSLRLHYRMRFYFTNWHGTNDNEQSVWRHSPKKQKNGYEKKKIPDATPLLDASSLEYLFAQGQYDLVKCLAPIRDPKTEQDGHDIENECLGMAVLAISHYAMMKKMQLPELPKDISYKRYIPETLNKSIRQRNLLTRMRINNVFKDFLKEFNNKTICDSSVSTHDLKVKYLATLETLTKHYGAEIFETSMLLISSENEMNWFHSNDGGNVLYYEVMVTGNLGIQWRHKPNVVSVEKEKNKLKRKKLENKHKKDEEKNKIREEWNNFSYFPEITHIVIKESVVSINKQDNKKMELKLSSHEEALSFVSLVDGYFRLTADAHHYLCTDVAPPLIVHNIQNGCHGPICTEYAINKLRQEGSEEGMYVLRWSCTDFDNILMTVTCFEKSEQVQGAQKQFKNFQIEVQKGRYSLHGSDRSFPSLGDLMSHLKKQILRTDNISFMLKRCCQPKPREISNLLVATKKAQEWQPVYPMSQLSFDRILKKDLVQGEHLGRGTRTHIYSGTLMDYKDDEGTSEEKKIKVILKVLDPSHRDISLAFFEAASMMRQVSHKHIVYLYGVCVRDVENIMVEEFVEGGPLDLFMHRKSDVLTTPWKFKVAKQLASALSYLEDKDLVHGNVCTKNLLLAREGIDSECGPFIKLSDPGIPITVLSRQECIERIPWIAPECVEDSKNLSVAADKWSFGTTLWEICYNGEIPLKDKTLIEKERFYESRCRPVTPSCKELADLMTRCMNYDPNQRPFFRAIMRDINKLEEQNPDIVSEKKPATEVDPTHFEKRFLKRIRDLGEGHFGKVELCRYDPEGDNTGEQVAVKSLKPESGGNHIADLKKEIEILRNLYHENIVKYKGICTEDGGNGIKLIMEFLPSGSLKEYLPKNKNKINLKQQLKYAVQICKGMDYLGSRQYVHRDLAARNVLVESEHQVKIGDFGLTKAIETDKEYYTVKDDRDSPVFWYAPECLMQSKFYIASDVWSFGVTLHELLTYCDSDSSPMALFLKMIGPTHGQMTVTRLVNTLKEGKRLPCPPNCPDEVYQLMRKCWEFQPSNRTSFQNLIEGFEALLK

Row | IC50 [1] [µM] | IC50 [2] [µM] | IC50 [3] [µM] | IC50 [4] [µM] | SMILES
1 | 1 to 10 | 1 to 10 | 1 to 10 | ≥ 10 | Cn1cc(Nc2nccc(-c3ccc(C(=O)N4CCS(=O)(=O)CC4)nc3)n2)cn1 [TDM-180764, (1,1-sulfur dioxide) (5-(2-((1-methyl-1H-pyrazol-4-yl)amino)pyrimidin-4-yl)pyridin-2-yl)methanone]
2 | < 0.1 | < 0.1 | < 0.1 | 1 to 10 | Cn1cc(Nc2nccc(-c3ccc(NC(=O)C4CC4)cc3)n2)cn1 [TDM-180755, N-(4-(2-((1-methyl-1H-pyrazol-4-yl)amino)pyrimidin-4-yl)phenyl)cyclopropanecarboxamide]
3 | 0.1 to 1 | 0.1 to 1 | 0.1 to 1 | ≥ 10 | Cn1cc(Nc2nccc(-c3ccc(NC(=O)C4(F)CC4)cc3)n2)cn1 [TDM-180803, 1-fluoro-N-(4-(2-((1-methyl-1H-pyrazol-4-yl)amino)pyrimidin-4-yl)phenyl)cyclopropane-1-carboxamide]
4 | < 0.1 | < 0.1 | < 0.1 | 0.1 to 1 | Cn1cc(Nc2nccc(-c3ccc(NC(=O)C4CC4(F)F)cc3)n2)cn1 (stereo not drawn) [TDM-180757, 2,2-difluoro-N-(4-(2-((1-methyl-1H-pyrazol-4-yl)amino)pyrimidin-4-yl)phenyl)cyclopropane-1-carboxamide]
5 | 1 to 10 | 0.1 to 1 | 1 to 10 | 1 to 10 | Cn1cc(Nc2nccc(-c3ccc(NC(=O)C4CCC4)nc3)n2)cn1 [TDM-180823, N-(5-(2-((1-methyl-1H-pyrazol-4-yl)amino)pyrimidin-4-yl)pyridin-2-yl)cyclobutanemethyl]
6 | 0.1 to 1 | 0.1 to 1 | 0.1 to 1 | 1 to 10 | Cn1cc(Nc2nccc(-c3ccc(NC(=O)CC4CC4)cc3)n2)cn1 [TDM-180804, 2-cyclopropyl-N-(4-(2-((1-methyl-1H-pyrazol-4-yl)amino)pyrimidin-4-yl)phenyl)acetamide]
7 | 0.1 to 1 | 0.1 to 1 | 0.1 to 1 | 1 to 10 | Cn1cc(Nc2nccc(-c3ccc(NC(=O)C(F)F)nc3)n2)cn1 [TDM-180849, 2,2-difluoro-N-(5-(2-((1-methyl-1H-pyrazol-4-yl)amino)pyrimidin-4-yl)pyridin-2-yl)acetamide]
8 | 0.1 to 1 | < 0.1 | 0.1 to 1 | 0.1 to 1 | Cn1cc(Nc2nccc(-c3ccc(NC(=O)CC(F)(F)F)nc3)n2)cn1 [TDM-180830, 3,3,3-trifluoro-N-(5-(2-((1-methyl-1H-pyrazol-4-yl)amino)pyrimidin-4-yl)pyridin-2-yl)propanamide]
9 | 0.1 to 1 | 0.1 to 1 | 0.1 to 1 | ≥ 10 | Cn1cc(Nc2nccc(-c3ccc(NC(=O)C4(F)CC4)nc3)n2)cn1 [TDM-180821, 1-fluoro-N-(5-(2-((1-methyl-1H-pyrazol-4-yl)amino)pyrimidin-4-yl)pyridin-2-yl)cyclopropane-1-carboxamide]
10 | 1 to 10 | 0.1 to 1 | 0.1 to 1 | 1 to 10 | COCCC(=O)Nc1ccc(-c2ccnc(Nc3cnn(C)c3)n2)cn1 [TDM-180814, 3-methoxy-N-(5-(2-((1-methyl-1H-pyrazol-4-yl)amino)pyrimidin-4-yl)pyridin-2-yl)propanamide]
11 | 0.1 to 1 | 0.1 to 1 | 1 to 10 | > 10 | Cc1cc(-c2ccnc(Nc3cnn(C)c3)n2)ccc1C(=O)NCC(F)(F)F [TDM-180780, 2-methyl-4-(2-((1-methyl-1H-pyrazol-4-yl)amino)pyrimidin-4-yl)-N-(2,2,2-trifluoroethyl)benzamide]
12 | 1 to 10 | 1 to 10 |  |  | Cn1cc(Nc2nccc(-c3cnc(NC(=O)C4CC4)nc3)n2)cn1 [TDM-180904, N-(2-((1-methyl-1H-pyrazol-4-yl)amino)-[4,5′-bipyrimidin]-2′-yl)cyclopropanecarboxamide]
13 | ≥ 10 | 1 to 10 |  |  | CCCS(=O)(=O)Nc1ccc(-c2ccnc(Nc3cnn(C)c3)n2)cn1 [TDM-180901, N-(5-(2-((1-methyl-1H-pyrazol-4-yl)amino)pyrimidin-4-yl)pyridin-2-yl)propane-1-sulfonamide]
14 | ≥ 10 | ≥ 10 |  |  | Cn1cc(Nc2nccc(-c3cnc(NS(=O)(=O)Cc4ccccc4)nc3)n2)cn1 [TDM-180921, N-(2-((1-methyl-1H-pyrazol-4-yl)amino)-[4,5′-bipyrimidin]-2′-yl)-1-phenylmethanesulfonamide]
15 | 1 to 10 | 0.1 to 1 |  |  | Cn1cc(Nc2nccc(-c3cnc(NC(=O)CC(F)(F)F)nc3)n2)cn1 [TDM-180887, 3,3,3-trifluoro-N-(2-((1-methyl-1H-pyrazol-4-yl)amino)-[4,5′-bipyrimidin]-2′-yl)propanamide]
16 | ≥ 10 | 1 to 10 |  |  | Cn1cc(Nc2nccc(-c3ccc(NC(=O)CC4CC4)c4cc[nH]c34)n2)cn1 [TDM-180933]
